# Experimental data published in patent US5705523A, “Pyridine- and imidazole-derived agents for cardiovascular diseases” (Pfizer Inc., priority 1991, dated 1998).
# pIC50: −log10 of the molar value.
# What was measured:
# PGI2 synthetase = conditions: pre-incubation with pig aorta microsomes; result in words; cited from earlier work
# [1] = molecular target: T1, thromboxane A2 synthetase (Homo sapiens, UniProt P24557); assay: Thromboxane A2 (T×A2) synthetase inhibition (T×B2 production, radioimmunoassay); type: biochemical; conditions: human platelet microsomes, in vitro; read-out: T×A2 synthetase inhibitory activity: IC50
# T1 construct: Indomethacin pretreated human platelet microsomes; from tissue; host or cells: human platelets (microsomes)
# T1 sequence (P24557 1-533): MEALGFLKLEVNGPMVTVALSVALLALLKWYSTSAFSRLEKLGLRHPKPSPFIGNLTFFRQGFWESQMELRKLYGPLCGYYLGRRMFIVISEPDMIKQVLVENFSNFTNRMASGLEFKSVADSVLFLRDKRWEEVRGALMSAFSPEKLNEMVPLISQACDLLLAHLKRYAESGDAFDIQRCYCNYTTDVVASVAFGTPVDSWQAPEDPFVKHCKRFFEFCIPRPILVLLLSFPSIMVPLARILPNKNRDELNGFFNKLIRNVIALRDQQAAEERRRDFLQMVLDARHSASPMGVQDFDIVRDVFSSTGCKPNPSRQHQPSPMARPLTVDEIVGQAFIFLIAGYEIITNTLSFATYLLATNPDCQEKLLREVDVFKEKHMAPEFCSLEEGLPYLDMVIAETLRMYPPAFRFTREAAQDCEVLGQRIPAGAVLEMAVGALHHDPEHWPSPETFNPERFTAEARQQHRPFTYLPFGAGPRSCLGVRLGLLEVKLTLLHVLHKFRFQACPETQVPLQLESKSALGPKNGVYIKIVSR
# Description: Ram seminal vesicle microsomes (Biochemistry, 1971, 10, 2372) are incubated with arachidonic acid (100.0 μM) for 1.0 minute at 22° C. to produce endoperoxide (PGH2). Aliquots of PGH2 are incubated for 30 seconds at 22° C. with pig aorta microsomes (Nature, 1976, 263, 663) and the reaction terminated with five volumes of ethanol. PGI2 production is assessed by measuring its stable breakdown product 6-keto-PGF1α, using a specific radioimmunoassay.
# Indomethacin pretreated human platelet microsomes (Science 1976, 193, 163) are incubated for 2 minutes at 0° C. with PGH2 (produced as in 1) and the reaction terminated with 5 volumes of ethanol. T×A2 production is assessed by measuring its stable metabolite T×B2,using a specific radioimmunoassay.
# The test compound is pre-incubated with enzyme for 5 minutes, and its ability to inhibit the thromboxane A2 synthetase enzyme is measured as the reduction of T×A2 (T×B2) production.
# thromboxane A2 receptor = molecular target: T2, thromboxane A2 receptor (Rattus norvegicus, UniProt P34978); assay: Thromboxane A2 receptor antagonism (U-46619 contraction of rat aortic strips); type: cell-based; conditions: agonist U-46619, in vitro, read-out: T×A2 antagonist activity: pA2 (converted)
# T2 construct: Spirally cut rat aortic strips; from tissue; host or cells: rat aorta (spirally cut strips)
# T2 sequence (P34978 1-341): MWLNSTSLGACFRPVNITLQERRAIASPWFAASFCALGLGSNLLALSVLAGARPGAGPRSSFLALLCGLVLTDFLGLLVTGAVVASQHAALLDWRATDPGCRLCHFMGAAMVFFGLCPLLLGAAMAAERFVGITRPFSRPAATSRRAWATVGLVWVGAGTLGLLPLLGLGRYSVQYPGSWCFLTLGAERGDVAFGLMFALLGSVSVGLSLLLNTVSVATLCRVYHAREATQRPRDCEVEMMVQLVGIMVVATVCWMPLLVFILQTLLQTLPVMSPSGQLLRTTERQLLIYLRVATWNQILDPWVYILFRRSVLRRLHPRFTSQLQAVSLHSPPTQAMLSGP
# Description: Spirally cut rat aortic strips, mounted for isometric tension recording in 20 ml organ baths, are bathed in Krebs-bicarbonate solution at 37° C. Following an incubation period of 2 hours under 1 gram resting tension, the tissues are pre-treated with U-46619 (a thromboxane A2 receptor agonist) for 10 minutes, then washed and the tissues allowed to equilibrate for a further 1 hour. Cumulative doses of U-46619 over the range 1 nM-100 nM are sequentially included in the bathing fluid and increases in the tissue tension noted.
# The test compounds are incubated with the tissue for 15 minutes prior to repeating the cumulative dosing of U-46619 and the ability of the compound to antagonize the thromboxane A2 receptor is determined from the dose-response curves for U-46619 in the presence of varied concentrations of the test compound.
Structure (SMILES),pIC50 [1],Kb (thromboxane A2 receptor) [nM],inhibition of PGI2 production by PGI2 synthetase (PGI2 synthetase)
CCCCCC(/C=C/C=C\C/C=C\C/C=C\CCCC(=O)O)OO (stereo not shown) [15-hydroperoxyarachidonic acid],,,completely inhibited
"O=C(O)CCc1cc(CCNS(=O)(=O)c2ccc(Cl)cc2)cc(Cc2cccnc2)c1 [Example 48, 3-{3-[2-(4-Chlorophenylsulphonylamino)ethyl]-5-(3-pyridylmethyl)phenyl}propanoic acid]",7.41,0.407,
"O=C(O)CCc1cc(CCNS(=O)(=O)c2ccc(Br)cc2)cc(Cc2cccnc2)c1 [Example 49, 3-{3-[2-(4-Bromophenylsulphonylamino)ethyl]-5-(3-pyridylmethyl)phenyl}propanoic acid]",7.31,0.363,
CC(O)(c1cccnc1)c1cc(CCNS(=O)(=O)c2ccc(Cl)cc2)cc(CCC(=O)O)c1 (stereo not shown) [Example 67],7.21,0.851,
"C=C(c1cccnc1)c1cc(CCNS(=O)(=O)c2ccccc2)cc(CCC(=O)O)c1 [Example 82, 3-{3-(2-Phenylsulphonylamino)ethyl-5-[1-(3-pyridyl)ethenyl]phenyl}propanoic acid]",7.30,0.759,
"C=C(c1cccnc1)c1cc(CCNS(=O)(=O)c2ccc(Cl)cc2)cc(CCC(=O)O)c1 [Example 83, 3-{3-[2-(4-Chlorophenylsulphonylamino)ethyl]-5-[1-(3-pyridyl)ethenyl]phenyl}propanoic acid]",7.28,0.0977,
"CC(c1cccnc1)c1cc(CCNS(=O)(=O)c2ccccc2)cc(CCC(=O)O)c1 (stereo not shown) [Example 84, 3-{3-(2-Phenylsulphonylamino)ethyl-5-[1-(3-pyridyl)ethyl]phenyl}propanoic acid]",7.36,0.186,

# Further compounds by rising pIC50 [1], results first:
pIC50 [1],Kb (thromboxane A2 receptor) [nM],Structure (SMILES),inhibition of PGI2 production by PGI2 synthetase (PGI2 synthetase)
7.42,0.871,"O=C(O)CCc1cc(CCNS(=O)(=O)c2ccccc2)cc(Oc2cccnc2)c1 [Example 61, 3-[3(2-Phenylsulphonylamino)ethyl-5-(3-pyridyloxy)phenyl]propanoic acid]",
7.42,0.0692,"CC(c1cccnc1)c1cc(CCNS(=O)(=O)c2ccc(Cl)cc2)cc(CCC(=O)O)c1 (stereo not shown) [Example 85, 3-{3-[2-(4-Chlorophenylsulphonylamino)ethyl]-5-[1-(3-pyridyl)ethyl]phenyl}propanoic acid]",
7.43,0.398,"O=C(O)CCc1cc(CCNS(=O)(=O)c2ccc(Cl)cc2)cc(Oc2cccnc2)c1 [Example 62, 3-{3-[2-(4-Chlorophenylsulphonylamino)ethyl]-5-(3-pyridyloxy)phenyl}propanoic acid]",
